Test: xn = mol fraction of the nth substance listed
Details: 101 kPa, Liquid

C=Cc1ccccc1 [styrene] + O=[N+]([O-])c1ccccc1
Details	mass density [kg/m3]
293.15 K, x1 = 0.0536	1185.47
293.15 K, x1 = 0.1324	1160.15
293.15 K, x1 = 0.1909	1141.63
293.15 K, x1 = 0.2564	1121.18
293.15 K, x1 = 0.3257	1099.86
293.15 K, x1 = 0.3986	1077.76
293.15 K, x1 = 0.4576	1060.12
293.15 K, x1 = 0.5243	1040.42
293.15 K, x1 = 0.5888	1021.61
293.15 K, x1 = 0.6424	1006.13
293.15 K, x1 = 0.7156	985.23
293.15 K, x1 = 0.7756	968.27
293.15 K, x1 = 0.8324	952.34
293.15 K, x1 = 0.8755	940.34
293.15 K, x1 = 0.9424	921.83
293.15 K, x1 = 1	906
303.15 K, x1 = 0.0621	1173.19
303.15 K, x1 = 0.1248	1152.93
303.15 K, x1 = 0.1822	1134.64
303.15 K, x1 = 0.2429	1115.56
303.15 K, x1 = 0.3139	1093.59
303.15 K, x1 = 0.3571	1080.39
303.15 K, x1 = 0.4249	1059.93
303.15 K, x1 = 0.4819	1042.96
303.15 K, x1 = 0.5487	1023.33
303.15 K, x1 = 0.5901	1011.29
303.15 K, x1 = 0.6528	993.23
303.15 K, x1 = 0.7289	971.58
303.15 K, x1 = 0.7913	954.03
303.15 K, x1 = 0.8592	935.12
303.15 K, x1 = 0.9368	913.72
303.15 K, x1 = 1	896.44
313.15 K, x1 = 0.0492	1167.15
313.15 K, x1 = 0.1189	1144.52
313.15 K, x1 = 0.1898	1121.9
313.15 K, x1 = 0.2563	1101.03
313.15 K, x1 = 0.3398	1075.31
313.15 K, x1 = 0.4018	1056.54
313.15 K, x1 = 0.4621	1038.54
313.15 K, x1 = 0.5243	1020.21
313.15 K, x1 = 0.5811	1003.69
313.15 K, x1 = 0.6421	986.16
313.15 K, x1 = 0.7132	965.98
313.15 K, x1 = 0.7723	949.39
313.15 K, x1 = 0.8421	930.01
313.15 K, x1 = 0.8942	915.68
313.15 K, x1 = 0.9524	899.79
313.15 K, x1 = 1	886.88
323.15 K, x1 = 0.0598	1152.7
323.15 K, x1 = 0.1329	1129.06
323.15 K, x1 = 0.1942	1109.58
323.15 K, x1 = 0.2458	1093.41
323.15 K, x1 = 0.3239	1069.35
323.15 K, x1 = 0.3891	1049.61
323.15 K, x1 = 0.4314	1036.97
323.15 K, x1 = 0.5028	1015.92
323.15 K, x1 = 0.5622	998.67
323.15 K, x1 = 0.6321	978.64
323.15 K, x1 = 0.6873	963.03
323.15 K, x1 = 0.7419	947.74
323.15 K, x1 = 0.8054	930.15
323.15 K, x1 = 0.8823	909.1
323.15 K, x1 = 0.9339	895.1
323.15 K, x1 = 1	877.32
333.15 K, x1 = 0.0647	1139.39
333.15 K, x1 = 0.1278	1119.07
333.15 K, x1 = 0.1825	1101.73
333.15 K, x1 = 0.2542	1079.38
333.15 K, x1 = 0.3183	1059.76
333.15 K, x1 = 0.3798	1041.24
333.15 K, x1 = 0.4248	1027.86
333.15 K, x1 = 0.4892	1008.97
333.15 K, x1 = 0.5329	996.32
333.15 K, x1 = 0.5892	980.2
333.15 K, x1 = 0.6379	966.41
333.15 K, x1 = 0.7132	945.37
333.15 K, x1 = 0.7987	921.85
333.15 K, x1 = 0.868	903.04
333.15 K, x1 = 0.9468	881.9
333.15 K, x1 = 1	867.76
343.15 K, x1 = 0.0687	1125.66
343.15 K, x1 = 0.1139	1111.2
343.15 K, x1 = 0.1842	1089.06
343.15 K, x1 = 0.2389	1072.13
343.15 K, x1 = 0.3234	1046.47
343.15 K, x1 = 0.3894	1026.81
343.15 K, x1 = 0.4346	1013.54
343.15 K, x1 = 0.4903	997.4
343.15 K, x1 = 0.5538	979.25
343.15 K, x1 = 0.614	962.29
343.15 K, x1 = 0.6622	948.88
343.15 K, x1 = 0.7319	929.71
343.15 K, x1 = 0.7922	913.35
343.15 K, x1 = 0.8531	896.99
343.15 K, x1 = 0.9234	878.32
343.15 K, x1 = 1	858.2
353.15 K, x1 = 0.055	1116.88
353.15 K, x1 = 0.1376	1090.79
353.15 K, x1 = 0.1726	1079.91
353.15 K, x1 = 0.2389	1059.6
353.15 K, x1 = 0.302	1040.61
353.15 K, x1 = 0.3791	1017.85
353.15 K, x1 = 0.4349	1001.66
353.15 K, x1 = 0.5139	979.13
353.15 K, x1 = 0.5628	965.4
353.15 K, x1 = 0.6249	948.19
353.15 K, x1 = 0.6733	934.94
353.15 K, x1 = 0.7234	921.37
353.15 K, x1 = 0.7981	901.38
353.15 K, x1 = 0.8621	884.47
353.15 K, x1 = 0.9412	863.83
353.15 K, x1 = 1	848.64

— the NIST ThermoML archive (doi:10.1016/j.jct.2004.12.008)
